# Results published in US20260356819A1, “OXOISOINDOLINYL-SUBSTITUTED […] DERIVATIVE AND USE THEREOF” (GLUETACS THERAPEUTICS (SHANGHAI) CO., LTD., priority 2023, published 2026).
# How the values were obtained:
# Assay type in all cases: cell-based
# Settings in all cases: compounds at 50 nM and 500 nM
# WEE1 = molecular target: T1, WEE1 (Homo sapiens, UniProt P30291+Q96SW2); assay: Western blot degradation of WEE1 in hPBMCs (24 h)
# T1 construct: The supernatant was aspirated as the extracted total cell protein; endogenous in cells; host or cells: human peripheral blood mononuclear cells (hPBMCs)
# T1 sequence (P30291 whole entry): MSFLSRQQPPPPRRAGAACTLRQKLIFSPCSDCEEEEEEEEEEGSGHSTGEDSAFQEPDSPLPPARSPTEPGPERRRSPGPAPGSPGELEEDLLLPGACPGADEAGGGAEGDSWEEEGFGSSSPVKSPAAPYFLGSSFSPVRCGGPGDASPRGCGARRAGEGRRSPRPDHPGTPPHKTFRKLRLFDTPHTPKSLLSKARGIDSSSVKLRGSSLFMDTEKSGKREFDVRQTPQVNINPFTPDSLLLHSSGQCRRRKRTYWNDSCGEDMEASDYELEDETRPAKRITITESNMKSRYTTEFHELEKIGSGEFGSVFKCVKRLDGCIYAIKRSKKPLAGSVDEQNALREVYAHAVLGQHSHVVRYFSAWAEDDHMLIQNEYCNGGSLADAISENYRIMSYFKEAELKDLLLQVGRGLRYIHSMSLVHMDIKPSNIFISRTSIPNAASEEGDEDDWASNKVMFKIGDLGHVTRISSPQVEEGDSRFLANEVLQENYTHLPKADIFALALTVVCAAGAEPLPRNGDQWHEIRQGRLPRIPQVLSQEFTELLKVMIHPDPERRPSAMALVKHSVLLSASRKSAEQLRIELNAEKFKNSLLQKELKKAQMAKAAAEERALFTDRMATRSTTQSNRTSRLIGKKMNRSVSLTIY
# T1 sequence (Q96SW2 whole entry): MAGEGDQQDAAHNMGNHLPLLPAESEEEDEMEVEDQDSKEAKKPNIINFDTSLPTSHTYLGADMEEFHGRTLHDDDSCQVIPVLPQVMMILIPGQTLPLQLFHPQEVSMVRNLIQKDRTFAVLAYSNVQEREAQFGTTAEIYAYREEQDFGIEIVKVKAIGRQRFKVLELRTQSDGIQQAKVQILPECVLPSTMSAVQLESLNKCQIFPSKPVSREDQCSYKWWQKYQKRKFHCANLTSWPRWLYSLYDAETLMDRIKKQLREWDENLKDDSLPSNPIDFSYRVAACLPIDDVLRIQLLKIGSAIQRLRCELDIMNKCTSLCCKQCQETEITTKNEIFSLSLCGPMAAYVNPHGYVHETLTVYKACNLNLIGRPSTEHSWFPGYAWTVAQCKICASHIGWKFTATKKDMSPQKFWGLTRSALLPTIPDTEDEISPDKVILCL
# T1 sequence (Q16531 whole entry partner): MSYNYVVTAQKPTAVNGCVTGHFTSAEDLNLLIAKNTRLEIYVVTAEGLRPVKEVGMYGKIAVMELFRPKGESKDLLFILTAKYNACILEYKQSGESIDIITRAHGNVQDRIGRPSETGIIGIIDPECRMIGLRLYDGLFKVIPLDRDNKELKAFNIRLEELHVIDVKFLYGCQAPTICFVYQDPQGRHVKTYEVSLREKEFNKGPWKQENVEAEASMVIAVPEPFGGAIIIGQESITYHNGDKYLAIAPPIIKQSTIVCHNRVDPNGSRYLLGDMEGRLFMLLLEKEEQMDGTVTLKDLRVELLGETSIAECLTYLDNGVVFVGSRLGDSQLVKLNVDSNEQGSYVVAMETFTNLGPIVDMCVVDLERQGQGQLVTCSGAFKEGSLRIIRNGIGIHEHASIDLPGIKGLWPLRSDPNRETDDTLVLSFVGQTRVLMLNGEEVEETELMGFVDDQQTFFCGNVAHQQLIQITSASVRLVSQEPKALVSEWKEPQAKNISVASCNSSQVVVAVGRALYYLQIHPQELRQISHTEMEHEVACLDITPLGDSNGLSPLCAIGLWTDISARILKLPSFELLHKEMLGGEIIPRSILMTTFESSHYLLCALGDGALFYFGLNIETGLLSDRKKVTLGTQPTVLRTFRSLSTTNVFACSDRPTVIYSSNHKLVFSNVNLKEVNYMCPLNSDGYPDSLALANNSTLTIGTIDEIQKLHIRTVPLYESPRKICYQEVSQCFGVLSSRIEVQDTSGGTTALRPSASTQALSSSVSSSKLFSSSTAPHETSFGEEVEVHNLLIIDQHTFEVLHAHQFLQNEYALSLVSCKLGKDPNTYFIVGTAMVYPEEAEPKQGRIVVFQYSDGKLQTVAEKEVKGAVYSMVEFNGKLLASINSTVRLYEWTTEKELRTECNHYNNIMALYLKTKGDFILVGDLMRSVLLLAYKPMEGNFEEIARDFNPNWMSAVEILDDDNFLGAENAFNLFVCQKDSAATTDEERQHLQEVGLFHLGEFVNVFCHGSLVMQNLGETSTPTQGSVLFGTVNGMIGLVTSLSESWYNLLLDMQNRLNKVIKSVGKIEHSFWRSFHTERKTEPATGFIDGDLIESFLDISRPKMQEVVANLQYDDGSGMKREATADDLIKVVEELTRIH
# Outline: (§1)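 Read-out is Western blot band grayscale, divided by internal control band and normalised to give percent target protein remaining; degradation rate is 1 minus that value. Cells were human PBMCs exposed to compound at 50 nM and 500 nM for 24 hours.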
# IKZF1 = molecular target: T2, IKZF1 (Homo sapiens, UniProt Q13422+Q96SW2); assay: Western blot degradation of IKZF1 in hPBMCs (24 h)
# T2 construct: The supernatant was aspirated as the extracted total cell protein; endogenous in cells; host or cells: human peripheral blood mononuclear cells (hPBMCs)
# T2 sequence (Q13422 whole entry): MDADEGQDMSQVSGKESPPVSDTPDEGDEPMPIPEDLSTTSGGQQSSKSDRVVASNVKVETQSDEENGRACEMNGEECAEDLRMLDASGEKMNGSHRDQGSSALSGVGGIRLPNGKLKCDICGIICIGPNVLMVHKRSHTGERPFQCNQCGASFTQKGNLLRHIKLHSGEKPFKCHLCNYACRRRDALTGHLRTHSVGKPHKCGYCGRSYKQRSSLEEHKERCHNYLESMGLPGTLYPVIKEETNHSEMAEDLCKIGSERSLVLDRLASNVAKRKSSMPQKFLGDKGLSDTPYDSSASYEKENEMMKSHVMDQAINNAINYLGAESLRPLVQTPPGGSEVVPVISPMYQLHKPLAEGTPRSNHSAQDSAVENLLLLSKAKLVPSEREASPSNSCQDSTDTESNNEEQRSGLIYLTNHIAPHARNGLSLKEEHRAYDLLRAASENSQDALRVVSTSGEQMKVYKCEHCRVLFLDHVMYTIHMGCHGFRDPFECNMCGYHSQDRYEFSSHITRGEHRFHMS
# T2 sequence (Q96SW2 whole entry): as the sequence (Q96SW2 whole entry) above
# T2 sequence (Q16531 whole entry partner): as the sequence (Q16531 whole entry partner) above
# Outline: as §1
# IKZF2 = molecular target: T3, IKZF2 (Homo sapiens, UniProt Q96SW2+Q9UKS7); assay: Western blot degradation of IKZF2 in hPBMCs (24 h)
# T3 construct: The supernatant was aspirated as the extracted total cell protein; endogenous in cells; host or cells: human peripheral blood mononuclear cells (hPBMCs)
# T3 sequence (Q9UKS7 whole entry): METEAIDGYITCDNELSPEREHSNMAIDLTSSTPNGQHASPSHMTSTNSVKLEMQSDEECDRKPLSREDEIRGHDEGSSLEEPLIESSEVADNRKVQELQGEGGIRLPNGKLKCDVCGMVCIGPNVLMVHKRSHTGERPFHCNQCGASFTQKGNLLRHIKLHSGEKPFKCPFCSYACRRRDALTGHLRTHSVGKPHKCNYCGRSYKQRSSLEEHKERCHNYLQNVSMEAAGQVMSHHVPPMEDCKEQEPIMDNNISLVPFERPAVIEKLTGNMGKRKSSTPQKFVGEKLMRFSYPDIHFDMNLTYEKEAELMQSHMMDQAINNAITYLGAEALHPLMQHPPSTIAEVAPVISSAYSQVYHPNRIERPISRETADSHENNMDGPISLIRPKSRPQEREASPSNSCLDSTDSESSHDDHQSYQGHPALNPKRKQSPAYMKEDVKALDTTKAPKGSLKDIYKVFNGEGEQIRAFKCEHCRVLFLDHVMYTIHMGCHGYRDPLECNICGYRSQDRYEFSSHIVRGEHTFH
# T3 sequence (Q96SW2 whole entry): as the sequence (Q96SW2 whole entry) above
# T3 sequence (Q16531 whole entry partner): as the sequence (Q16531 whole entry partner) above
# Outline: as §1
# IKZF3 = molecular target: T4, IKZF3 (Homo sapiens, UniProt Q96SW2+Q9UKT9); assay: Western blot degradation of IKZF3 in hPBMCs (24 h)
# T4 construct: The supernatant was aspirated as the extracted total cell protein; endogenous in cells; host or cells: human peripheral blood mononuclear cells (hPBMCs)
# T4 sequence (Q9UKT9 whole entry): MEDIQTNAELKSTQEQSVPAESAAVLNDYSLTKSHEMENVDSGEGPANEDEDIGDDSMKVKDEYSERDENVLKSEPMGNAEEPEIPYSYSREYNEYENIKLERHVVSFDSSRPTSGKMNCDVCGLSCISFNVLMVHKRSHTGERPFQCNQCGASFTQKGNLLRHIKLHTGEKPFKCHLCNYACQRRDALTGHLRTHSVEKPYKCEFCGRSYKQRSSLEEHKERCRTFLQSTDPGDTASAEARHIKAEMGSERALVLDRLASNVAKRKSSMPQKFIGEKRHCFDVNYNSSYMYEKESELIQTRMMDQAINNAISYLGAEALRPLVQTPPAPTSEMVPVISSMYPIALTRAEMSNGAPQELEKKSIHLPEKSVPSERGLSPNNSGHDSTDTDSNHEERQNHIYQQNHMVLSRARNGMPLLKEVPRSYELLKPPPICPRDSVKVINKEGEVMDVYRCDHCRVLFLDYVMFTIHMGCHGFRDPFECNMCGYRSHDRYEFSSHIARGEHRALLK
# T4 sequence (Q96SW2 whole entry): as the sequence (Q96SW2 whole entry) above
# T4 sequence (Q16531 whole entry partner): as the sequence (Q16531 whole entry partner) above
# Outline: as §1
# CK1α = molecular target: T5, CK1α (Homo sapiens, UniProt P48729+Q96SW2); assay: Western blot degradation of CK1α in hPBMCs (24 h)
# T5 construct: The supernatant was aspirated as the extracted total cell protein; endogenous in cells; host or cells: human peripheral blood mononuclear cells (hPBMCs)
# Outline: as §1
# GSPT1 = molecular target: T6, GSPT1 (Homo sapiens, UniProt P15170+Q96SW2); assay: Western blot degradation of GSPT1 in hPBMCs (24 h)
# T6 construct: The supernatant was aspirated as the extracted total cell protein; endogenous in cells; host or cells: human peripheral blood mononuclear cells (hPBMCs)
# T6 sequence (P15170 whole entry): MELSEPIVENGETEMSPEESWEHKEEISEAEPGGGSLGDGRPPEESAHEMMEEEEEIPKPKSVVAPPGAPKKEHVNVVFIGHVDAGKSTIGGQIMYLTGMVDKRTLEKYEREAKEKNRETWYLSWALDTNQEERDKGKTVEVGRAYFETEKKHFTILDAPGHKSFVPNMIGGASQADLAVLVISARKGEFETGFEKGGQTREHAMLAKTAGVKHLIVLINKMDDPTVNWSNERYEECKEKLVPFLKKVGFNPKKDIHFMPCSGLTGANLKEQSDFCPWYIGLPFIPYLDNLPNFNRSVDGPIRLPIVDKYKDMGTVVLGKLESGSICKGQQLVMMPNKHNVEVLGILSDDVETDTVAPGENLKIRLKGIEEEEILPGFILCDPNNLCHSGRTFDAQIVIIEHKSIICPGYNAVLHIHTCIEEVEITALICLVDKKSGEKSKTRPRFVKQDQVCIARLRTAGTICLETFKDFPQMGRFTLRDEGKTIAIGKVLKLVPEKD
# T6 sequence (Q96SW2 whole entry): as the sequence (Q96SW2 whole entry) above
# T6 sequence (Q16531 whole entry partner): as the sequence (Q16531 whole entry partner) above
# Outline: as §1
SMILES,WEE1 substrate protein remaining % (WEE1),IKZF1 substrate protein remaining % (IKZF1),IKZF2 substrate protein remaining % (IKZF2),IKZF3 substrate protein remaining % (IKZF3),CK1α substrate protein remaining % (CK1α),GSPT1 substrate protein remaining % (GSPT1)
"O=C1CCN(N2C(=O)c3ccc(CN4CCN(c5c(Cl)ccnc5Cl)CC4)cc3C2=O)C(=O)N1 [GT-06973, 5-((4-(2,4-dichloropyridin-3-yl)piperazin-1-yl)methyl)-2-(2,4-dioxotetrahydropyrimidin-1(2H)-yl)isoindoline-1,3-dione]",A (0% ≤ substrate protein remaining % ≤80%),A (0% ≤ substrate protein remaining % ≤80%),B (80%< substrate protein remaining % ≤100%),A (0% ≤ substrate protein remaining % ≤80%),B (80%< substrate protein remaining % ≤100%),B (80%< substrate protein remaining % ≤100%)
"O=C1CCN(N2Cc3cc(CN4CCN(c5c(Cl)ccnc5Cl)CC4)ccc3C2=O)C(=O)N1 [GT-06974, 1-(5-((4-(2,4-dichloropyridin-3-yl)piperazin-1-yl)methyl)-1-oxoisoindolin-2-yl)dihydropyrimidine-2,4(1H,3H)-dione]",A (0% ≤ substrate protein remaining % ≤80%),A (0% ≤ substrate protein remaining % ≤80%),B (80%< substrate protein remaining % ≤100%),A (0% ≤ substrate protein remaining % ≤80%),B (80%< substrate protein remaining % ≤100%),B (80%< substrate protein remaining % ≤100%)
"O=C1CCN(N2C(=O)c3ccc(CN4CCN(c5ccc(Cl)nc5)CC4)cc3C2=O)C(=O)N1 [GT-07027, 5-((4-(6-chloropyridin-3-yl)piperazin-1-yl)methyl)-2-(2,4-dioxotetrahydropyrimidin-1(2H)-yl)isoindoline-1,3-dione]",A (0% ≤ substrate protein remaining % ≤80%),B (80%< substrate protein remaining % ≤100%),B (80%< substrate protein remaining % ≤100%),B (80%< substrate protein remaining % ≤100%),B (80%< substrate protein remaining % ≤100%),A (0% ≤ substrate protein remaining % ≤80%)
"O=C1CCN(N2Cc3cc(CN4CCN(c5ncnc(Cl)c5Cl)CC4)ccc3C2=O)C(=O)N1 [GT-07028, 1-(5-((4-(5,6-dichloropyrimidin-4-yl)piperazin-1-yl)methyl)-1-oxoisoindolin-2-yl)dihydropyrimidine-2,4(1H,3H)-dione]",A (0% ≤ substrate protein remaining % ≤80%),B (80%< substrate protein remaining % ≤100%),B (80%< substrate protein remaining % ≤100%),B (80%< substrate protein remaining % ≤100%),B (80%< substrate protein remaining % ≤100%),A (0% ≤ substrate protein remaining % ≤80%)
"O=C1CCN(N2Cc3cc(CN4CCN(c5cnnc(Cl)c5Cl)CC4)ccc3C2=O)C(=O)N1 [GT-07029, 1-(5-((4-(5,6-dichloropyridazin-4-yl)piperazin-1-yl)methyl)-1-oxoisoindolin-2-yl)dihydropyrimidine-2,4(1H,3H)-dione]",A (0% ≤ substrate protein remaining % ≤80%),B (80%< substrate protein remaining % ≤100%),A (0% ≤ substrate protein remaining % ≤80%),B (80%< substrate protein remaining % ≤100%),B (80%< substrate protein remaining % ≤100%),A (0% ≤ substrate protein remaining % ≤80%)
"O=C1CCN(N2Cc3cc(CN4CCN(c5cc(Cl)nnc5Cl)CC4)ccc3C2=O)C(=O)N1 [GT-07030, 1-(5-((4-(3,6-dichloropyridazin-4-yl)piperazin-1-yl)methyl)-1-oxoisoindolin-2-yl)dihydropyrimidine-2,4(1H,3H)-dione]",B (80%< substrate protein remaining % ≤100%),B (80%< substrate protein remaining % ≤100%),A (0% ≤ substrate protein remaining % ≤80%),B (80%< substrate protein remaining % ≤100%),B (80%< substrate protein remaining % ≤100%),B (80%< substrate protein remaining % ≤100%)
"O=C1CCN(N2Cc3cc(CN4CCN(c5ncncn5)CC4)ccc3C2=O)C(=O)N1 [GT-07031, 1-(5-((4-(1,3,5-triazin-2-yl)piperazin-1-yl)methyl)-1-oxoisoindolin-2-yl)dihydropyrimidine-2,4(1H,3H)-dione]",B (80%< substrate protein remaining % ≤100%),A (0% ≤ substrate protein remaining % ≤80%),B (80%< substrate protein remaining % ≤100%),A (0% ≤ substrate protein remaining % ≤80%),A (0% ≤ substrate protein remaining % ≤80%),A (0% ≤ substrate protein remaining % ≤80%)
"O=C1CCN(N2Cc3cc(CN4CCN(c5c(Cl)cncc5Cl)CC4)ccc3C2=O)C(=O)N1 [GT-07032, 1-(5-((4-(3,5-dichloropyridin-4-yl)piperazin-1-yl)methyl)-1-oxoisoindolin-2-yl)dihydropyrimidine-2,4(1H,3H)-dione]",B (80%< substrate protein remaining % ≤100%),B (80%< substrate protein remaining % ≤100%),B (80%< substrate protein remaining % ≤100%),B (80%< substrate protein remaining % ≤100%),B (80%< substrate protein remaining % ≤100%),A (0% ≤ substrate protein remaining % ≤80%)
"Cc1cc(N2CCN(Cc3ccc4c(c3)CN(N3CCC(=O)NC3=O)C4=O)CC2)cc(C)n1 [GT-07033, 1-(5-((4-(2,6-dimethylpyridin-4-yl)piperazin-1-yl)methyl)-1-oxoisoindolin-2-yl)dihydropyrimidine-2,4(1H,3H)-dione]",B (80%< substrate protein remaining % ≤100%),B (80%< substrate protein remaining % ≤100%),B (80%< substrate protein remaining % ≤100%),B (80%< substrate protein remaining % ≤100%),B (80%< substrate protein remaining % ≤100%),A (0% ≤ substrate protein remaining % ≤80%)
"O=C1CCN(N2C(=O)c3ccc(CN4CCN(c5ncnc(Cl)c5Cl)CC4)cc3C2=O)C(=O)N1 [GT-07034, 5-((4-(5,6-dichloropyrimidin-4-yl)piperazin-1-yl)methyl)-2-(2,4-dioxotetrahydropyrimidin-1(2H)-yl)isoindoline-1,3-dione]",A (0% ≤ substrate protein remaining % ≤80%),A (0% ≤ substrate protein remaining % ≤80%),A (0% ≤ substrate protein remaining % ≤80%),A (0% ≤ substrate protein remaining % ≤80%),A (0% ≤ substrate protein remaining % ≤80%),A (0% ≤ substrate protein remaining % ≤80%)
